Key:
[1] = Solubility in acetone and acetone/H2O mixtures, 30 minutes; settings: room temperature
Procedure: The first measurement was conducted at room temperature over 30 minutes with mixing completed by spinning in centrifuge tubes.

[2] = Glass transition temperature (Tg) by mDSC; format: physicochemical; settings: neat compound, Example 1
Procedure: MDSC was performed using a TA Instruments Q2000 differential scanning calorimeter equipped with a TA instruments Refrigerated Cooling System 90. MDSC was used to measure glass transition temperature (Tg) and melting temperature (Tm), if present. The temperature range was adjusted from 0-250° C. with a heating rate of 1.5° C./min. The scanning mode was modulated where the modulation frequency was 60 seconds and modulation amplitude 1° C.
The effect of relative humidity on the Tg was examined for the solid dispersion. The solid dispersion was exposed to humidity levels of 33%, 50% or 75% for 24 hours. Following exposure, the samples were capped in hermetically sealed DSC pans for analysis. […] As shown, the Tg dropped to 71° C. and 51° C. when exposed to 33% and 75% RH, respectively. […] The solid dispersion was packaged in packaging that maintains RH values <33% for long-term storage.

[3] = tested on: VEGF; experiment: VEGF ELISA Assay in 786-O cells; format: cell-based; settings: Homo sapiens, 786-0; VEGF concentration in 786-O cell culture medium
Procedure: Each concentration was plated in duplicate. About 20 hours later, medium was removed by suction and each well was supplied with 180 μL of growth medium. About 20 μl freshly-made 10× compound stocks were added to each well. […] The EC50 was calculated by GraphPad Prism using the dose-response-inhibition (four parameter) equation. The cell-seeded plate was then subjected to CellTiter-Glo luminescence cell viability assay (Promega) by adding 50 μL of Celltiter Glo reagent into each well and shaking the plate for 8 minutes at 550 rpm (Thermomixer R, Eppendorf) then the luminescence signal immediately read in a plate reader (3 second delay, 0.5 second/well integration time, Synergy 2 multi Detection Microplate reader).

[4] = Solubility and sink factor in dissolution media at pH 2 and 6.8; settings: for Sink Factor (10 mg) / Sink Factor (40 mg): 900 mL media
[5] = Suspension stability monitored by SGF/FaSSIF dissolution test; format: physicochemical
Procedure: The performance of each solid dispersion suspension was monitored at 4 and 24 hours after preparation using the SGF/FaSSIF dissolution test as the comparative metric.
The suspension stability dissolution profiles for the solid dispersion formulations held for 4 hours or 24 hours can be found in Tables 8 and 9, respectively. The dissolution tests were dosed at 2.0 mgA/mL in SGF and upon transfer into FaSSIF were reduced to 1.0 mgA/mL. It is expected that the solid dispersion suspensions can be held for up to 4 hours prior to dosing.

[6] = Non-sink gastric transfer dissolution test (SGF to FaSSIF); format: physicochemical
Procedure: The dissolution performance of the solid dispersions was tested in a non-sink dissolution test. […] During the test, samples were transferred from SGF [theoretical Cmax=2000 μgA/mL] to FaSSIF [theoretical Cmax=1000 μgA/mL].

[7] = Solubility in acetone/H2O combinations, equilibrated 48 hours; format: physicochemical; settings: 48 hours at room temperature
Source text: The second measurement was completed to further evaluate acetone/H2O combinations in 1% H2O increments.

[8] = tested on: 786-O-Hif-Luc cells; experiment: Luciferase Assay; format: cell-based; settings: luciferase activity after about 24 hours
Procedure: A pool of infected cells were then selected against 2 μg/mL of puromycin (P8833, Sigma) for 10 days followed by limited dilution to select single clones.
Each concentration was tested in triplicate. After about 24 hours, luciferase activity was determined using ONE-Glo Luciferase Assay Reagent (E6110, Promega) following the manufacturer's recommended procedure.

[9] = pH 2.0 (0.01N HCl) w/0.5% Tween 80
[10] = pH 2.0 (0.01N HCl) w/1% Tween 80
[11] = pH 6.8 (50 mM NaH2PO4) w/0.5% CTAB
[12] = pH 6.8 (50 mM NaH2PO4) w/0.5% SLS
[13] = pH 6.8 (50 mM NaH2PO4) w/0.5% Tween 80
[14] = pH 6.8 (50 mM NaH2PO4) w/1% CTAB
[15] = pH 6.8 (50 mM NaH2PO4) w/1% SLS
[16] = pH 6.8 (50 mM NaH2PO4) w/1% Tween 80
[17] = Example 6, lipid vehicle capsules

CS(=O)(=O)c1ccc(Oc2cc(F)cc(C#N)c2)c2c1[C@H](O)[C@H](F)[C@@H]2F [compound of Formula (I), 3-(((1S,2S,3R)-2,3-difluoro-1-hydroxy-7-(methylsulfonyl)-2,3-dihydro-1H-inden-4-yl)oxy)-5-fluorobenzonitrile]
solubility ([1]; 87.5/12.5% Acetone/H2O): 5.8 wt. % | solubility ([1]; 90/10% Acetone/H2O): 7.1 wt. % | solubility ([1]; 92.5/7.5% Acetone/H2O): 6.7 wt. % | solubility ([1]; 95/5% Acetone/H2O): 7.5 wt. % | solubility ([1]; 97.5/2.5% Acetone/H2O): 7.3 wt. % | solubility ([1]; 100% Acetone): 6.2 wt. % | glass transition temperature (Tg) [2]: 79.9 °C | EC50 [3]: < 0.05 µM | solubility ([4]; pH 2): 100 µg/mL | Sink Factor (10 mg) ([4]; pH 2.0 (0.01N HCl) w/0.5% CTAB): 5.4 | Sink Factor (40 mg) ([4]; pH 2.0 (0.01N HCl) w/0.5% CTAB): 1.4 | Sink Factor (10 mg) ([4]; pH 2.0 (0.01N HCl) w/0.5% SLS): 3.6 | Sink Factor (40 mg) ([4]; pH 2.0 (0.01N HCl) w/0.5% SLS): 0.9 | Sink Factor (10 mg) [4, 9]: 1.8 | Sink Factor (40 mg) [4, 9]: 0.5 | Sink Factor (10 mg) ([4]; pH 2.0 (0.01N HCl) w/1% CTAB): 9 | Sink Factor (40 mg) ([4]; pH 2.0 (0.01N HCl) w/1% CTAB): 2.3 | Sink Factor (10 mg) ([4]; pH 2.0 (0.01N HCl) w/1% SLS): 6.3 | Sink Factor (40 mg) ([4]; pH 2.0 (0.01N HCl) w/1% SLS): 1.6 | Sink Factor (10 mg) [4, 10]: 1.8 | Sink Factor (40 mg) [4, 10]: 0.5 | Sink Factor (10 mg) ([4]; pH 2.0 (0.01N HCl)): 0.9 | Sink Factor (40 mg) ([4]; pH 2.0 (0.01N HCl)): 0.2 | solubility ([4]; pH 2, aqueous with cosolvent or surfactant or cyclodextrin, thermodynamic from solid, Solubility): 60 µg/mL | solubility ([4]; pH 2, aqueous with cosolvent or surfactant or cyclodextrin, thermodynamic from solid, Solubility, pH 2.0 (0.01N HCl) w/0.5% SLS): 40 µg/mL | solubility ([4]; pH 2, aqueous with cosolvent or surfactant or cyclodextrin, thermodynamic from solid, Solubility, pH 2.0 (0.01N HCl) w/0.5% Tween 80): 20 µg/mL | solubility ([4]; pH 2, aqueous with cosolvent or surfactant or cyclodextrin, thermodynamic from solid, Solubility, pH 2.0 (0.01N HCl) w/1% SLS): 70 µg/mL | solubility ([4]; pH 2, aqueous with cosolvent or surfactant or cyclodextrin, thermodynamic from solid, Solubility, pH 2.0 (0.01N HCl) w/1% Tween 80): 20 µg/mL | solubility ([4]; pH 2, simulated gastric fluid, thermodynamic from solid, Solubility, pH 2.0 (0.01N HCl)): 10 µg/mL | Sink Factor (10 mg) [4, 11]: 6.3 | Sink Factor (40 mg) [4, 11]: 1.6 | Sink Factor (10 mg) [4, 12]: 3.6 | Sink Factor (40 mg) [4, 12]: 0.9 | Sink Factor (10 mg) [4, 13]: 1.8 | Sink Factor (40 mg) [4, 13]: 0.5 | Sink Factor (10 mg) [4, 14]: 9.9 | Sink Factor (40 mg) [4, 14]: 2.5 | Sink Factor (10 mg) [4, 15]: 6.3 | Sink Factor (40 mg) [4, 15]: 1.6 | Sink Factor (10 mg) [4, 16]: 1.8 | Sink Factor (40 mg) [4, 16]: 0.5 | Sink Factor (10 mg) ([4]; pH 6.8 (50 mM NaH2PO4)): 0.9 | Sink Factor (40 mg) ([4]; pH 6.8 (50 mM NaH2PO4)): 0.2 | solubility ([4]; pH 6.8, aqueous buffer, thermodynamic from solid, Solubility, pH 6.8 (50 mM NaH2PO4)): 10 µg/mL | solubility ([4]; pH 6.8, aqueous with cosolvent or surfactant or cyclodextrin, thermodynamic from solid, Solubility, pH 6.8 (50 mM NaH2PO4) w/0.5% CTAB): 70 µg/mL | solubility ([4]; pH 6.8, aqueous with cosolvent or surfactant or cyclodextrin, thermodynamic from solid, Solubility, pH 6.8 (50 mM NaH2PO4) w/0.5% SLS): 40 µg/mL | solubility ([4]; pH 6.8, aqueous with cosolvent or surfactant or cyclodextrin, thermodynamic from solid, Solubility, pH 6.8 (50 mM NaH2PO4) w/0.5% Tween 80): 20 µg/mL | solubility ([4]; pH 6.8, aqueous with cosolvent or surfactant or cyclodextrin, thermodynamic from solid, Solubility, pH 6.8 (50 mM NaH2PO4) w/1% CTAB): 110 µg/mL | solubility ([4]; pH 6.8, aqueous with cosolvent or surfactant or cyclodextrin, thermodynamic from solid, Solubility, pH 6.8 (50 mM NaH2PO4) w/1% SLS): 70 µg/mL | solubility ([4]; pH 6.8, aqueous with cosolvent or surfactant or cyclodextrin, thermodynamic from solid, Solubility, pH 6.8 (50 mM NaH2PO4) w/1% Tween 80): 20 µg/mL | Cmax GB ([5]; 10 mgA/mL suspension in 1 wt. % 1:1 methyl-cellulose:Tween 80 held 4 hours): 18.3 μgA/mL | Cmax GB ([5]; 10 mgA/mL suspension in 1 wt. % 1:1 methyl-cellulose:Tween 80 held 24 hours): 35.8 μgA/mL | AUC Enhancement ([5]; suspension held 4 hours): 1.0 | AUC FaSSIF ([5]; suspension held 4 hours): 2600 μgA/mL*min | Cmax FaSSIF ([5]; suspension held 4 hours): 15.5 μgA/mL | AUC Enhancement ([5]; suspension held 24 hours): 1.0 | AUC FaSSIF ([5]; suspension held 24 hours): 5600 μgA/mL*min | Cmax FaSSIF ([5]; suspension held 24 hours): 33.0 μgA/mL | AUC Enhancement ([6]; Example 2, AUC solid dispersion/AUC crystalline compound of Formula (I)): 1 | Cmax GB ([6]; Example 2, SGF, 30 minutes): 12 μgA/mL | Cmax FaSSIF ([6]; Example 2, after transfer to FaSSIF): 16 μgA/mL | AUC FaSSIF ([6]; Example 2, post gastric transfer): 2600 μgA/mL*min | Cmax GB ([6]; Example 6, capsules, 5 wt. % compound in lipid vehicle): 14 μgA/mL | AUC FaSSIF [6, 17]: 3021 μgA/mL*min | Cmax FaSSIF [6, 17]: 19 μgA/mL | AUC Enhancement ([6]; Example 6, versus bulk crystalline drug): 1.0 | solubility ([7]; 95/5% Acetone/H2O): 6.6 wt. % | solubility ([7]; 96/4% Acetone/H2O): 6.3 wt. % | solubility ([7]; 97/3% Acetone/H2O): 6.7 wt. % | solubility ([7]; 98/2% Acetone/H2O): 6.6 wt. % | solubility ([7]; 99/1% Acetone/H2O): 6.0 wt. % | solubility ([7]; 100% Acetone): 6.0 wt. % | EC50 [8]: < 0.05 µM

Source: US12358870B2, “Solid dispersions and pharmaceutical compositions comprising a substituted indane and methods for the preparation and use thereof” (Peloton Therapeutics Inc., priority 2018, dated 2025)
